Legend:
[1] = accelerated stability tests in comparison with crystal A; type: physicochemical
Source text: Cefdinir in the new crystalline form was subjected to accelerated stability tests in comparison with crystal A claimed in U.S. Pat. No. 4,935,507.

[2] = dissolution tests in 0.07 N HCl; type: physicochemical; settings: after the first hour, compared with crystal A

- stability ([1]; compared with reference crystal A of U.S. Pat. No. 4,935,507, listed as product obtained in this manner): high stability
- solubility on prolonged dissolution treatment (final dissolved cefdinir value) ([2]; listed as cefdinir in the new crystalline form): more soluble than crystal A
- solubility on prolonged dissolution treatment (final dissolved cefdinir value) ([2]; listed as product obtained in this manner): higher than that possible with crystal A
SMILES: C=CC1=C(C(=O)O)N2C(=O)[C@@H](NC(=O)/C(=N\O)c3csc(N)n3)[C@H]2SC1 [new crystal, cefdinir]
- stability ([1]; compared with reference crystal A of U.S. Pat. No. 4,935,507): at least equal to that of the reference crystal A
